The text below walks through data of patent publication EP2813571A1, “Method for the treatment of lung cancer” (Institut d'Investigació Biomèdica de Bellvitge (IDIBELL), priority 2013, dated 2014).

In general, EC50 refers to the concentration needed to bring the measured effect to its halfway point. The low end stands for a more potent agent, the high end for a less potent agent.

The test system of one assay is DMS-273. In words: MTT cell viability assay. To be noted: scramble shRNA DMS-273 cells compared with SETDB1-depleted clones; triplicate. The assay is classed as cell-based, human. As to the method: (§1) • Figure 1. Determination of SETDB1 gene amplification and its association with RNA and protein overexpression in lung cancer cell lines. (A) Assessment of SETDB1 copy number by quantitative genomic PCR. Amplification frequency of SETDB1 (evaluated with SYBR Green) was calculated by the standard curve method using the 7900HT SDS program. To define an internal control gene chromosome 1p36.23 was chosen because it is the least aneuploid region among our cell lines (PEX19 gene). DNA from normal lung was used as the reference standard. Results are reported as n-fold copy number increase relative to the PEX19 gene. […] The internal control gene was ACTB (beta-actin). • Figure 2. Growth-promoting effects of SETDB1 in lung cancer. (A) Stable down-regulation of the SETDB1 gene by short hairpins using two different target sequences for DMS-273 (clones A30/A31 and clone B32-63) and NCI-H1437 (clones A56-B and B46-9). […] Tumor volume was monitored over time and the tumor was excised and weighed at 30 days. […] (A) Effect of SETDB1 on the invasion potential of A549 cells determined by the matrigel invasion assay. […] Invasive cells were counted using ImageJ 1.45s (Wayne Rasband, National Institutes of Health, USA) and the percentage of invasive cells was represented. Results are the mean of at least three experiments by duplicate and the significance was determined using ANOVA-test. *p<0.05. […]

The subject of another assay is CL1-5. As to conditions: Lin and Wang 2007; cited from earlier work.
A further assay concerns SETDB1 protein. In words: Western blot for SETDB1 protein after drug treatment of SETDB1 amplified lung cancer cell lines. In kind it is cell-based, human. To be noted: DMS-273, NCI-H1437 and NCI-H1395. As to the method: as §1
For orientation: In western blotting, separated proteins are transferred to a membrane and probed.

Another assay concerns H647. As to conditions: Lin and Wang 2007; cited from earlier work.
The subject of a further assay is CL1-5 cells. To be noted: Lin and Wang 2007; cited from earlier work.
Another assay concerns A549. In words: MTT cell viability assay. In kind it is cell-based. To be noted: Homo sapiens, SETDB1 non-amplified cell line A549. The text has this: (§2) The observation that the presence of the SETDB1 gene amplification with associated overexpression was critical for the tumorigenesis of these lung cancer cells prompted the inventors to examine whether drugs targeting this pathway might find a therapeutic "niche" for their use in the described subset of cases with extra copies of this gene. No highly specific inhibitor for SETDB1 has been described in the publicly available literature, but one agent-mithramycin- is a clinically approved anti-tumor antibiotic that binds to DNA by interacting with the minor groove and displacing transcriptional activators that bind to GC-rich binding sites. Thus, the inventors tested whether a putative growth-inhibitory effect of this drug in lung cancer cells was dependent on SETDB1 expression. First, western blot analyses for the SETDB1 protein in the SETDB1 amplified lung cancer cell lines DMS-273, NCI-H1437 and NCI-H1395 upon the use of the drug were developed. […] Experiments for each clone were performed in triplicate. Furthermore, we extended the cell viability experiments, using the MTT assay, to the other two SETDB1 amplified lung cancer cell lines (NCI-H1437 and NCI-H1395) and to three SETDB1 non-amplified lung cancer cell lines (DMS-114, A549 and NCI-H1299). […] Thus, the presence of SETDB1 gene amplification could "mark" lung cancer cells that are more sensitive to the inhibition of cell viability associated with the use of mithramycin.

For a further assay, the system named is NCI-H1395. In words: MTT cell viability assay. In kind it is cell-based. To be noted: Homo sapiens, SETDB1 amplified cell line NCI-H1395.
Text: as §2
A general note: Formazan colour is commonly taken as a measure of viable cells.

Another assay has as its system DMS-114. In words: MTT cell viability assay. To be noted: Homo sapiens, SETDB1 non-amplified cell line DMS-114. In kind it is cell-based.
Text: as §2

The next assay has as its system NCI-H1299. In words: MTT cell viability assay. In kind it is cell-based. To be noted: Homo sapiens, SETDB1 non-amplified cell line NCI-H1299. As to the method:
as §1

The next assay concerns NCI-H1437. In words: MTT cell viability assay. The assay is classed as cell-based. To be noted: Homo sapiens, SETDB1 amplified cell line NCI-H1437. On the procedure: as §1

Turning to `CO[C@H](C(=O)[C@@H](O)[C@@H](C)O)[C@@H]1Cc2cc3cc(O[C@H]4C[C@@H](O[C@H]5C[C@@H](O)[C@H](O)[C@@H](C)O5)[C@H](O)[C@@H](C)O4)c(C)c(O)c3c(O)c2C(=O)[C@H]1O[C@H]1C[C@@H](O[C@H]2C[C@@H](O[C@H]3C[C@](C)(O)[C@H](O)[C@@H](C)O3)[C@H](O)[C@@H](C)O2)[C@H](O)[C@@H](C)O1` [mithramycin, (1S)-5-deoxy-1-C-((2S,3S)-7-{[2,6-dideoxy-3-O-(2,6-dideoxy-β-D-arabino-hexopyranosyl)-β-D-arabino-hexopyranosyl]oxy}-3-{[2,6-dideoxy-3-C-methyl-β-D-ribo-hexopyranosyl-(1→3)-2,6-dideoxy-β-D-arabino-hexopyranosyl-(1→3)-2,6-dideoxy-β-D-arabino-hexopyranosyl]oxy}-5,10-dihydroxy-6-methyl-4-oxo-1,2,3,4-tetrahydroanthracen-2-yl)-1-O-methyl-D-xylulose], the “sensitivity to the growth-inhibitory effect” value with DMS-273 was “significantly more sensitive”. Besides, the “growth of human lung cancer cell lines” value in the assay with CL1-5 and in the assay with H647 was “inhibiting the growth” throughout. Besides, the SETDB1 expression entry in the assay on SETDB1 protein was “inhibit SETDB1 expression”. In addition, the invasion phenotypes result in the assay with CL1-5 cells is “inhibiting the invasion phenotypes”. Moreover, the EC50 in the assay with A549 worked out at 122 nM; with NCI-H1395 it was 14.7 nM; with DMS-114, 348 nM; with NCI-H1299, 32 nM; in the assay on NCI-H1437, 13.6 nM.
